# Measurements taken from patent US20200278355A1, “CONJUGATED PROTEINS AND USES THEREOF” (THE SCRIPPS RESEARCH INSTITUTE, priority 2017, published 2020).
# Key:
# SCP2 = target: T1, SCP2 (Homo sapiens, UniProt P22307); assay: ABPP-SILAC BPK-29yne competition in H460 cells: SCP2; assay type: cell-based; conditions: 20 μM
# T1 construct: H460 cells or H460 cells expressing luciferase in a 10 cm plate were incubated with indicated compounds; endogenous in cells; host or cells: H460
# Protocol: (§1) Isotopically labeled H460 cell lines were generated as described above. Light and heavy cells were treated with compounds (20 μM) or DMSO, respectively, for 3 h, followed by labeling with the BPK-29yne (5 μM) for 30 min. Cells were washed once ice-cold PBS and lysed in 1% Triton 100-X dissolved in PBS with protease inhibitors (Sigma) by sonication. Lysate was adjusted to 1.5 mg ml^−1 in 500 μL. Samples were conjugated by CuAAC to Biotin-PEG4-azide (5 μL of 10 mM stocks in DMSO, final concentration=100 μM). CuAAC “click” mix contained TCEP, TBTA ligand and CuSO4 as detailed for isoTOP-ABPP sample preparation. Samples were further processed as detailed in: isoTOP-ABPP streptavidin enrichment and isoTOP-ABPP trypsin TEV digestion with the following exception: after overnight incubation at 37° C. with trypsin, tryptic digests were separated from the beads with Micro Bio-Spin columns (Bio-Rad) by centrifugation (1,000×g, 1 min). Beads were rinsed once with water (200 μL) and combined with tryptic digests. […]
# (§2) The MS2 spectra data were extracted and searched using RAW Convertor and ProLuCID algorithm as described in isoTOP-ABPP peptide and protein quantification. […] Ratios of heavy/light (DMSO/test compound) peaks were calculated using in-house CIMAGE software. […] The mean R values and standard deviation for multiple biological experiments were calculated from the average ratios from each replicate. […]
# KEAP1-WT NSCLC cells = assay: Anchorage-independent growth, KEAP1-WT NSCLC cells; assay type: cell-based, human; conditions: 5 μM
# Text: Based on its in situ activity (FIG. 6D and FIG. 12A, 12G) and selectivity (FIGS. 6A, 6B), BPK-29 was chosen for additional biological studies. […] Exogenous expression of […] the growth inhibition caused by BPK-29.
# NR0B1 = target: T2, NR0B1 (Homo sapiens, UniProt P51843); assay: ABPP-SILAC BPK-29yne competition in H460 cells: NR0B1; assay type: cell-based; conditions: 20 μM
# T2 construct: H460 cells or H460 cells expressing luciferase in a 10 cm plate were incubated with indicated compounds; endogenous in cells; host or cells: H460 (NSCLC, KEAP1-mutant)
# T2 sequence (P51843 1-470): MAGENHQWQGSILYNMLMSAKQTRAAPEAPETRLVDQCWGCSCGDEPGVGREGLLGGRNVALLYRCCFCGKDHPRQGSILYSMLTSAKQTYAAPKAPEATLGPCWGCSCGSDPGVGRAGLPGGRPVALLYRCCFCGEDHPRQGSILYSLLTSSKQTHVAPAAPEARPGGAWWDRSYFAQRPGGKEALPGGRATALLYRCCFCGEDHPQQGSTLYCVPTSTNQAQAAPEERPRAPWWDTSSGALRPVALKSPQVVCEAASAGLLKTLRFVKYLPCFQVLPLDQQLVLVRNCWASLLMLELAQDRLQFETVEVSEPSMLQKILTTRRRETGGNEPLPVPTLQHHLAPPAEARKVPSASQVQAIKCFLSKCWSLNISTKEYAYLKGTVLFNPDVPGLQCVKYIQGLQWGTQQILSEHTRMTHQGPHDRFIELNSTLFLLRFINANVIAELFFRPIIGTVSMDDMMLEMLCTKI
# Protocol: as §1, §2
# ALDH1A1 = target: T3, ALDH1A1 (Homo sapiens, UniProt P00352); assay: ABPP-SILAC BPK-29yne competition in H460 cells: ALDH1A1; assay type: cell-based; conditions: 20 μM
# T3 construct: Isotopically labeled H460 cell lines were generated as described above; endogenous in cells; host or cells: H460 (SILAC-labelled)
# T3 sequence (P00352 whole entry): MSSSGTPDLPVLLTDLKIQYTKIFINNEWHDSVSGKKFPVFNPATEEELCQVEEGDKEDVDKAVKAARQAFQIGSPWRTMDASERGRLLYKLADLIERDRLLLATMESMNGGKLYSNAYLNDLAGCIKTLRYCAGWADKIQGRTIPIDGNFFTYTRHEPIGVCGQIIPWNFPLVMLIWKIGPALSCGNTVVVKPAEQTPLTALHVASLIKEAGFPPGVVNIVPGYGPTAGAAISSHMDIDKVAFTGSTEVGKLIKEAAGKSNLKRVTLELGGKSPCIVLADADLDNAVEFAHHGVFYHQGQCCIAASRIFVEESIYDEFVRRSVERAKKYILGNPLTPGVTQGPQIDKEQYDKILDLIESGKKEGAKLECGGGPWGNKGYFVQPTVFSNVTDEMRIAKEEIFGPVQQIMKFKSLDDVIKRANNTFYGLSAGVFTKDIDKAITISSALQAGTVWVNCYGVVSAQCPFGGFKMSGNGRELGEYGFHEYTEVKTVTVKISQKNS
# Protocol: as §1, §2
# [1] = test system: CRY1, DEPDC1, and CPLX2 expression in KEAP1-WT H2009 cells; assay: Gene expression changes (qPCR) in KEAP1-WT NSCLC cells; assay type: cell-based, human
# NT5DC1 = target: T4, NT5DC1 (Homo sapiens, UniProt Q5TFE4); assay: ABPP-SILAC BPK-29yne competition in H460 cells: NT5DC1; assay type: cell-based; conditions: 20 μM
# T4 construct: Isotopically labeled H460 cell lines were generated as described above; endogenous in cells; host or cells: H460 (SILAC-labelled)
# T4 sequence (Q5TFE4 whole entry): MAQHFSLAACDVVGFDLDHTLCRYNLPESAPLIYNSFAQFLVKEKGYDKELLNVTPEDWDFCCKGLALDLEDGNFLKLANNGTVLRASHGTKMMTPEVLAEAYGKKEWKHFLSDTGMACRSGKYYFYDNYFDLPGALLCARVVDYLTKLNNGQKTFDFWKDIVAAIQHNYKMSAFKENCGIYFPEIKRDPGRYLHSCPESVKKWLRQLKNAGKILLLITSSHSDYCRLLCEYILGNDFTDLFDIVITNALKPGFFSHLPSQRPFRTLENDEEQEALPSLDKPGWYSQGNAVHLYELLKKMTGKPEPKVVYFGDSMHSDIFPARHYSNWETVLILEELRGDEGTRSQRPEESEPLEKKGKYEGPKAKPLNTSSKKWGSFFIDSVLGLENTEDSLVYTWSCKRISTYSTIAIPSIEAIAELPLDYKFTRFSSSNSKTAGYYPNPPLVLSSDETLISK
# Protocol: as §1, §2
# T1 sequence (P22307 whole entry): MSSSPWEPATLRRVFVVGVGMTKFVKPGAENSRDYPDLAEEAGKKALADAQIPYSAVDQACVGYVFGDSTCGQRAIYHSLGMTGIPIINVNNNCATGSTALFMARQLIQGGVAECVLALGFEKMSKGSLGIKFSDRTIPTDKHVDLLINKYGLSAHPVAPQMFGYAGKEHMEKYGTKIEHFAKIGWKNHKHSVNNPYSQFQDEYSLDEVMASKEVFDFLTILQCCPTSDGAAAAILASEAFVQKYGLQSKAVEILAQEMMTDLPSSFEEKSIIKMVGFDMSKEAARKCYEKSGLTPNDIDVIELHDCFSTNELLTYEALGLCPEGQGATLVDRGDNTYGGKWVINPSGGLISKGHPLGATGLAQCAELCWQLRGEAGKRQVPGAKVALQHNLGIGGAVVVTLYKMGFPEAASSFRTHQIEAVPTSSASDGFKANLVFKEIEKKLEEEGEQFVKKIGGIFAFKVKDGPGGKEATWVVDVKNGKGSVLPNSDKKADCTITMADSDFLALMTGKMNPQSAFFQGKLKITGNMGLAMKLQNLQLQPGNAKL
compound,measurement,setting,value
"O=C(c1ccc(N2CCOCC2)cc1)N1CCCC(N(Cc2ccccc2)C(=O)CCl)CC1 (stereo not drawn) [BPK-29, N-benzyl-2-chloro-N-(1-(4-morpholinobenzoyl)azepan-4-yl)acetamide]",BPK-29-competed BPK-29yne analysis,SCP2,Yes (Competed defined as showing R value ≥ 2.5 at 20 μM of test compound)
same,anchorage-independent growth,KEAP1-WT NSCLC cells,minimally affected
same,BPK-29-competed BPK-29yne analysis,NR0B1,Yes (Competed defined as showing R value ≥ 2.5 at 20 μM of test compound)
same,BPK-29-competed BPK-29yne analysis,ALDH1A1,Yes (Competed defined as showing R value ≥ 2.5 at 20 μM of test compound)
same,"gene expression changes (CRY1, DEPDC1, CPLX2)",[1],not observed
same,BPK-29-competed BPK-29yne analysis,NT5DC1,Yes (Competed defined as showing R value ≥ 2.5 at 20 μM of test compound)
